Paper PMC4539253 (Bioorganic & medicinal chemistry letters, 2014)
Marks after values point to notes of the source that are not given here.

Assays:
CCR2 = CCR2 (Homo sapiens, UniProt P41597); experiment: CCR2 binding
Caco-2 = Caco-2 permeability; type: in vitro ADME; conditions: <15 is limit of detection
human-CCR2 knock-in mice = experiment: 6-h thioglycollate; conditions: mouse, in vivo
mouse CCR2 = mouse CCR2 (Mus musculus, UniProt P51683); experiment: Activity versus mouse CCR2
wild-type mice = experiment: TG-induced peritonitis model using wild-type mice; type: in vivo, mouse; conditions: data not shown

CCR2, sequence (P41597 whole entry): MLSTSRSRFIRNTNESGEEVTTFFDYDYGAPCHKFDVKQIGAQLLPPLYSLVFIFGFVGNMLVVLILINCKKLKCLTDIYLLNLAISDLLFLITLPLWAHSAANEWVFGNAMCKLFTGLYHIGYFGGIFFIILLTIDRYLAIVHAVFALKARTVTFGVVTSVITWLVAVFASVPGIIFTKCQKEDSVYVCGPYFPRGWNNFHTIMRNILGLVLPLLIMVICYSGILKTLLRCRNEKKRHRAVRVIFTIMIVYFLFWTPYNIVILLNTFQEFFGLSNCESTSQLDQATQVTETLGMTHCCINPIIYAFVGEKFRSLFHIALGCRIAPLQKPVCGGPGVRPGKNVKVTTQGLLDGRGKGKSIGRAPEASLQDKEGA
mouse CCR2, sequence (P51683 whole entry): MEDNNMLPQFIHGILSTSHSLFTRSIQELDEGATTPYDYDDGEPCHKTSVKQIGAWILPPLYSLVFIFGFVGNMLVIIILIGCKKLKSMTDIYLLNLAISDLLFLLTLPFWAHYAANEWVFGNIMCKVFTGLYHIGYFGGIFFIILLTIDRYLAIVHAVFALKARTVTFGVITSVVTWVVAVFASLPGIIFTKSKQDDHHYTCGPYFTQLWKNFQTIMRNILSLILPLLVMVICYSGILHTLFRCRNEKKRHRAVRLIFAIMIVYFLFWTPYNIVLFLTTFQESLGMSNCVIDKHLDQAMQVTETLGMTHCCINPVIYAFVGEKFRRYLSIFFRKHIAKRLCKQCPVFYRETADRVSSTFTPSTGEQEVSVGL

| SMILES | Caco-2 PAP-BL (Caco-2) | activity versus mouse CCR2 (mouse CCR2) | other results |
| --- | --- | --- | --- |
| CC(C)N(C)[C@@H]1CC[C@H](N2CC[C@H](NC(=O)c3cccc(C(F)(F)F)c3)C2=O)[C@H](CS(=O)(=O)C(C)C)C1 [Compound 10] | <15 nm/s |  | increase in CCR2 binding affinity as compared to 2 (CCR2; compared to 2): 6 fold |
| CC(C)N(C)[C@@H]1CC[C@H](N2CC[C@H](NC(=O)c3cccc(C(F)(F)F)c3)C2=O)[C@H](CS(C)(=O)=O)C1 [Compound 2] | <15 nm/s | poor activity | loss in CCR2 binding affinity as compared to 1 (CCR2; compared to 1): ~2 fold; inflammatory monocytes (Ly6C+F4/80+) in blood as compared to vehicle (human-CCR2 knock-in mice): significant reduction |
| CCS(=O)(=O)C[C@@H]1C[C@H](N(C)C(C)C)CC[C@@H]1N1CC[C@H](NC(=O)c2cccc(C(F)(F)F)c2)C1=O [Compound 8] | <15 nm/s |  | IC50 (CCR2): 1.3 ± 0.02 nM |
| CC(C)N(C)[C@@H]1CC[C@H](N2CC[C@H](NC(=O)c3cccc(C(F)(F)F)c3)C2=O)[C@H](CS(=O)(=O)C(C)(C)C)C1 [Compound 12] | 30 nm/s | poor activity | activity in TG-induced peritonitis model (wild-type mice): did not show any activity |
| CC(C)N(C)[C@@H]1CC[C@H](N2CC[C@H](NC(=O)c3cccc(C(F)(F)F)c3)C2=O)[C@H](CS(=O)(=O)c2ccccc2)C1 [Compound 1] | <15 ^e nm/s |  |  |
